Results published in paper PMC10815619, “Leveraging SARS-CoV-2 Main Protease (M^pro) for COVID-19 Mitigation with Selenium-Based Inhibitors” (International Journal of Molecular Sciences, 2024).
Where two headings read alike, the source gives them in different places.

Target: T1, SARS-CoV-2 M^pro (Severe acute respiratory syndrome coronavirus 2, UniProt P0DTD1)
T1 construct: covers ORF1ab polyprotein residues 3264–3569; N-terminal leader ending in the Mpro autocleavage site (SAVLQ*SGFRK) (N, cleaved yes); made in house; host or cells: Escherichia coli BL21 (DE3), pET100D-Topo vector
Test: Fluorescence-based cleavage assay with AFC-peptide substrate, IC50 against M^pro
Format: biochemical
Description: For the determination of half-maximal inhibitory concentrations (IC50) of inhibitors against M^pro, an AFC-Peptide substrate (SAE0180, Merck) was used for a fluorescence-based cleavage assay [66]. The assay was performed in half area 96-well, black, flat-bottomed microtiter plates (Corstar, Corning, Glendale, CA, USA) with a final volume of 125 μL. M^pro (final concentrations of 5–50 nM) was pre-incubated for 1 h at 25 °C with compounds at different concentrations in the assay buffer (PBS, pH 7.5). […] The readings for the different concentrations of the inhibitor compounds incubated with the substrate without M^Pro were measured as a blank. […] The results were plotted as dose inhibition curves using nonlinear regression with a variable slope to determine the IC50 values of inhibitor compounds using GraphPad Prism 9.0.

Row | Structure (SMILES) | IC50 [nM] | IC50 (recombinant M^pro 5-50 nM, 1 h pre-incubation at 25 °C, AFC-peptide substrate 12 μM, PBS pH 7.5, mean ± SD (n = 3), read-out: IC50 against M^pro) [nM]
1 | Cc1ccc(NC(=O)[Se]c2ccccc2)cc1 [Cmp. 3b] | 1040 ± 47 | 
2 | Cc1cc(C)cc(NC(=O)[Se]Cc2ccc(S(N)(=O)=O)cc2)c1 [Cmp. 3c, Se-(4-Sulfamoylbenzyl) (3,5-Dimethylphenyl) Carbamoselenoate] |  | 704
